Structures are written as SMILES. pIC50: −log10 of the molar value.

This assay has as its target T1, Muscarinic acetylcholine receptor M4 (Homo sapiens, UniProt P08173).
T1 sequence (P08173 whole entry): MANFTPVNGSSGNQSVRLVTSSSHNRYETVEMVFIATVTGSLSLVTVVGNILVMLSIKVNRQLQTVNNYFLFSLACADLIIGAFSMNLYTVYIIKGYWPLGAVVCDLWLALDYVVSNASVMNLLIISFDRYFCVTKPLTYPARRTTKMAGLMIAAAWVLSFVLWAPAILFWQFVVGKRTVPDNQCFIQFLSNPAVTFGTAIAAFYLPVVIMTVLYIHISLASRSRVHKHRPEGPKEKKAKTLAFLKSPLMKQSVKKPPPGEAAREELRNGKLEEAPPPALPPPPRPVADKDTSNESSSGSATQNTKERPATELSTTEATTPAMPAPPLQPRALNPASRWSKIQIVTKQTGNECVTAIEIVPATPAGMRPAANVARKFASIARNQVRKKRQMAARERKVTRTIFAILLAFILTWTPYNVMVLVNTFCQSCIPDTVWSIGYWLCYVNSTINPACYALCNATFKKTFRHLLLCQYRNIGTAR
Description: Antagonist activity at recombinant human M4 receptor expressed in CHO cells co-expressing Gqi5 by calcium mobilization assay.

The pIC50 is the IC50 on a negative log10 scale, so that one unit is a factor of ten. In the case of `O=C(C1CCN(c2cc(Oc3ccc(Cl)cc3F)ncn2)CC1)N1CCc2ccccc2C1`, the negative-log IC50 (pIC50) was 6.93.

The record behind these values is BindingDB's records for doi:10.1016/j.bmcl.2017.04.009 (Vanderbilt University School of Medicine, 2017).
